Reference: PubChem BioAssay AID226 (DTP/NCI, 2004)
“And” between values parts separate entries of the source, which are not always exact repeats. Equal values may be shown once. Inconclusive results and toxic doses are left out.

System: B6C3F1 mice, intracerebral ependymoblastoma, median survival T/C
Experiment: NCI In Vivo Anticancer Drug Screen. Data for tumor model Ependymoblastoma (intracerebral) in B6C3F1 mice
Conditions: endpoint: median survival time, higher = longer survival
Experimental: The antitumor activity of compounds was measured in mice bearing transplantable tumors. Survival or tumor size were measured and the results are expressed as the measurement made in the treated group (T) divided by the measurement made in the vehicle treated control group (C). The tumor model used in this assay is Ependymoblastoma (intracerebral) in B6C3F1 mice

C1CCC2C[N-]CCC2C1.C1CCC2C[N-]CCC2C1.C1CCC2C[N-]CCC2C1.C1CCC2C[N-]CCC2C1.[Cl][Rh][Cl] (configuration not stated)
T/C (dose: 2.0 mg/kg/injection, schedule: Q01DX005 (ip), vehicle: dextrose): 102 % of control
T/C (dose: 4.0 mg/kg/injection, schedule: Q01DX005 (ip), vehicle: dextrose): 117 % of control

CC(=O)OCC1OC(n2cnc3c(=S)nc(N)[nH]c32)C(OC(C)=O)C1OC(C)=O (configuration not stated)
T/C (dose: 3.12 mg/kg/injection, schedule: Q01DX005 (ip), vehicle: saline): 102 % of control and 109 % of control
T/C (dose: 6.25 mg/kg/injection, schedule: Q01DX005 (ip), vehicle: saline): 104 % of control and 105 % of control and 116 % of control
T/C (dose: 12.5 mg/kg/injection, schedule: Q01DX005 (ip), vehicle: saline): 98 % of control and 110 % of control
T/C (dose: 25.0 mg/kg/injection, schedule: Q01DX005 (ip), vehicle: saline): 104 % of control

CNNCc1ccc(C(=O)NC(C)C)cc1
T/C (dose: 32.0 mg/kg/injection, schedule: Q01DX005 (ip), vehicle: Klucel (hydroxypropylcellulose) (HPC)): 156 % of control
T/C (dose: 64.0 mg/kg/injection, schedule: Q01DX005 (ip), vehicle: Klucel (hydroxypropylcellulose) (HPC)): 155 % of control

Nc1nc2c(c(=O)[nH]1)N(C=O)C(CNc1ccc(C(=O)N[C@@H](CCC(=O)O)C(=O)O)cc1)CN2 (some centres not stated)
T/C (dose: 128.0 mg/kg/injection, schedule: Q01DX005 (ip), vehicle: saline with Tween-80): 101 % of control
T/C (dose: 128.0 mg/kg/injection, schedule: Q01DX005 (ip), vehicle: saline): 104 % of control
T/C (dose: 150.0 mg/kg/injection, schedule: Q04DX003 (ip), vehicle: saline): 104 % of control
T/C (dose: 256.0 mg/kg/injection, schedule: Q01DX005 (ip), vehicle: saline with Tween-80): 96 % of control
T/C (dose: 256.0 mg/kg/injection, schedule: Q01DX005 (ip), vehicle: saline): 98 % of control
T/C (dose: 300.0 mg/kg/injection, schedule: Q04DX003 (ip), vehicle: saline): 115 % of control
T/C (dose: 512.0 mg/kg/injection, schedule: Q01DX005 (ip), vehicle: saline with Tween-80): 101 % of control
T/C (dose: 512.0 mg/kg/injection, schedule: Q01DX005 (ip), vehicle: saline): 96 % of control
T/C (dose: 600.0 mg/kg/injection, schedule: Q04DX003 (ip), vehicle: saline): 101 % of control
T/C (dose: 1200.0 mg/kg/injection, schedule: Q04DX003 (ip), vehicle: saline): 115 % of control

Cc1cn(C2CC(O)C(CO)O2)c(=O)[nH]c1=O (configuration not stated)
T/C (dose: 64.0 mg/kg/injection, schedule: Q01DX005 (ip), vehicle: suspension in saline): 104 % of control
T/C (dose: 125.0 mg/kg/injection, schedule: Q01DX003 (ip), vehicle: saline with Tween-80): 95 % of control
T/C (dose: 125.0 mg/kg/injection, schedule: Q04DX003 (ip), vehicle: saline with Tween-80): 111 % of control
T/C (dose: 128.0 mg/kg/injection, schedule: Q01DX005 (ip), vehicle: suspension in saline): 94 % of control
T/C (dose: 250.0 mg/kg/injection, schedule: Q01DX003 (ip), vehicle: saline with Tween-80): 99 % of control
T/C (dose: 250.0 mg/kg/injection, schedule: Q04DX003 (ip), vehicle: saline with Tween-80): 113 % of control
T/C (dose: 256.0 mg/kg/injection, schedule: Q01DX005 (ip), vehicle: suspension in saline): 95 % of control
T/C (dose: 500.0 mg/kg/injection, schedule: Q01DX003 (ip), vehicle: saline with Tween-80): 95 % of control
T/C (dose: 500.0 mg/kg/injection, schedule: Q04DX003 (ip), vehicle: saline with Tween-80): 92 % of control and 120 % of control
T/C (dose: 512.0 mg/kg/injection, schedule: Q01DX005 (ip), vehicle: suspension in saline): 92 % of control
T/C (dose: 800.0 mg/kg/injection, schedule: Q01DX005 (ip), vehicle: saline with Tween-80): 98 % of control
T/C (dose: 1000.0 mg/kg/injection, schedule: Q01DX003 (ip), vehicle: saline with Tween-80): 107 % of control
T/C (dose: 1000.0 mg/kg/injection, schedule: Q04DX003 (ip), vehicle: saline with Tween-80): 106 % of control and 112 % of control
T/C (dose: 1024.0 mg/kg/injection, schedule: Q01DX005 (ip), vehicle: suspension in saline): 103 % of control
T/C (dose: 1600.0 mg/kg/injection, schedule: Q01DX005 (ip), vehicle: saline with Tween-80): 101 % of control
T/C (dose: 2000.0 mg/kg/injection, schedule: Q01DX003 (ip), vehicle: saline with Tween-80): 97 % of control
T/C (dose: 2000.0 mg/kg/injection, schedule: Q04DX003 (ip), vehicle: saline with Tween-80): 116 % of control and 89 % of control
T/C (dose: 3000.0 mg/kg/injection, schedule: Q01DX003 (ip), vehicle: saline with Tween-80): 94 % of control
T/C (dose: 3000.0 mg/kg/injection, schedule: Q04DX003 (ip), vehicle: saline with Tween-80): 94 % of control and 104 % of control
T/C (dose: 3200.0 mg/kg/injection, schedule: Q01DX005 (ip), vehicle: saline with Tween-80): 91 % of control

O=C1C(NCCO)=C(N2CC2)C(=O)C(NCCO)=C1N1CC1
T/C (dose: 0.06 mg/kg/injection, schedule: Q01DX005 (ip), vehicle: saline): 112 % of control
T/C (dose: 0.12 mg/kg/injection, schedule: Q01DX005 (ip), vehicle: saline): 113 % of control
T/C (dose: 0.19 mg/kg/injection, schedule: Q01DX005 (ip), vehicle: saline): 96 % of control
T/C (dose: 0.25 mg/kg/injection, schedule: Q01DX005 (ip), vehicle: saline): 91 % of control and 120 % of control
T/C (dose: 0.38 mg/kg/injection, schedule: Q01DX005 (ip), vehicle: saline): 100 % of control
T/C (dose: 0.5 mg/kg/injection, schedule: Q01DX005 (ip), vehicle: saline): 106 % of control
T/C (dose: 0.75 mg/kg/injection, schedule: Q01DX005 (ip), vehicle: saline): 117 % of control
T/C (dose: 1.0 mg/kg/injection, schedule: Q01DX005 (ip), vehicle: saline): 114 % of control
T/C (dose: 1.5 mg/kg/injection, schedule: Q01DX005 (ip), vehicle: saline): 120 % of control
T/C (dose: 2.0 mg/kg/injection, schedule: Q01DX005 (ip), vehicle: saline): 110 % of control

CCCCCCCCN(C)/N=N/c1nc[nH]c1C(N)=O
T/C (dose: 8.0 mg/kg/injection, schedule: Q01DX005 (ip), vehicle: saline with Tween-80): 119 % of control
T/C (dose: 16.0 mg/kg/injection, schedule: Q01DX005 (ip), vehicle: saline with Tween-80): 122 % of control and 123 % of control
T/C (dose: 32.0 mg/kg/injection, schedule: Q01DX005 (ip), vehicle: saline with Tween-80): 113 % of control
T/C (dose: 64.0 mg/kg/injection, schedule: Q01DX005 (ip), vehicle: saline with Tween-80): 111 % of control
